ChEMBL document CHEMBL1828558, “Discovery of (+)-N-(3-aminopropyl)-N-[1-(5-benzyl-3-methyl-4-oxo-[1,2]thiazolo[5,4-d]pyrimidin-6-yl)-2-methylpropyl]-4-methylbenzamide (AZD4877), a kinesin spindle protein inhibitor and potential anticancer agent” (J Med Chem, 2011)
Converted amounts (≈) assume the structure as drawn. The source made the active and inactive calls. The calls are words filed in the database; no cut-off is given here.

Legend:
[1] = target: T1, Kinesin-like protein KIF11 (Homo sapiens, UniProt P52732); test: Inhibition of human recombinant C-terminal His6-tagged KSP ATPase activity after 1 hr by malachite green assay
T1 sequence (P52732 whole entry): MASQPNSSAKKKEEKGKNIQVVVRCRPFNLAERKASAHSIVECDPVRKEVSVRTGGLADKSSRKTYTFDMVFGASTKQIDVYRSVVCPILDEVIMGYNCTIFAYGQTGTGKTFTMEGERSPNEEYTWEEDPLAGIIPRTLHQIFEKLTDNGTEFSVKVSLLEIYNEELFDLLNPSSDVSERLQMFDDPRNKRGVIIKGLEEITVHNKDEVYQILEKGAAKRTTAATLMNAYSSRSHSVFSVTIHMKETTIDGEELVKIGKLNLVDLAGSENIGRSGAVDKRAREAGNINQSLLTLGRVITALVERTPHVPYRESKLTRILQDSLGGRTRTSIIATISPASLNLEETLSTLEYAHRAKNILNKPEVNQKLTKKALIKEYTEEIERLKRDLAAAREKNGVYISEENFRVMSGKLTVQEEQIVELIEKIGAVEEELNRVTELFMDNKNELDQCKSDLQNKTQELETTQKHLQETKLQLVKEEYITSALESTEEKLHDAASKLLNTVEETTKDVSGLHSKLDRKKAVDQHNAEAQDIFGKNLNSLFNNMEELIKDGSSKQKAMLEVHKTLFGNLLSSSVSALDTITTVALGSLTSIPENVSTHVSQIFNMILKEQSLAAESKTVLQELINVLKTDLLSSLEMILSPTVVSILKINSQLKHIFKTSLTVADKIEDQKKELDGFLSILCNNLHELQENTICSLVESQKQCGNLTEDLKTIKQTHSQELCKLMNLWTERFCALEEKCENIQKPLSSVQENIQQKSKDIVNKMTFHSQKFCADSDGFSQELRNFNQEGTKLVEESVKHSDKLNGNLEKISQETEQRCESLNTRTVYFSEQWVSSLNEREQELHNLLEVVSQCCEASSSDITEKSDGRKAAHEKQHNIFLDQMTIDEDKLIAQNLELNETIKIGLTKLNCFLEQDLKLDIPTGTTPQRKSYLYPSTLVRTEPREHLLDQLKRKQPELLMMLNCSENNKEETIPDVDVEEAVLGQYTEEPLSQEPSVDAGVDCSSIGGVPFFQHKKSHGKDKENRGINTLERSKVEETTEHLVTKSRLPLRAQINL

[2] = tested on: COLO 205; test: Anticancer activity against human COLO205 cells after 72 hrs by MTS/PMS assay; format: functional, cell-based
[3] = Aqueous solubility of the compound in 0.1 M phosphate buffer at pH 7.4 after 24 hrs by HPLC-UV method; format: physicochemical
[4] = tested on: Rattus norvegicus; test: Increase monasters formation in Hans Wistar rat hollow fiber model implanted with human COLO205 cells at 6 mg/kg, iv after 48 hrs; format: functional, organism-based; parameters: dose 6 mg/kg; conditions: COLO 205
[5] = organism: Cavia porcellus; test: Binding affinity to L-type calcium channel phenylalkylamine binding site in guinea pig ileum at 10 uM by radioligand displacement assay; format: tissue-based
[6] = organism: Cavia porcellus; test: Binding affinity to L-type calcium channel benzothiazepine binding site in guinea pig ileum at 10 uM by radioligand displacement assay; format: tissue-based
[7] = target: Ribosomal protein S6 kinase alpha-1 (Homo sapiens) (UniProt Q15418); test: Inhibition of MAPKAP-K1a at 10 uM
[8] = tested on: Rattus norvegicus; test: Increase in caspase 3 activation in Hans Wistar rat hollow fiber model implanted with human COLO205 cells at 12 mg/kg, iv after 48 hrs; format: functional, organism-based; parameters: dose 12 mg/kg; conditions: COLO 205
[9] = tested on: Rattus norvegicus; test: Increase of phospho-histone-H3 positive cells in Hans Wistar rat hollow fiber model implanted with human COLO205 cells at 12 mg/kg, iv after 24 hrs; format: functional, organism-based; parameters: dose 12 mg/kg; conditions: COLO 205
[10] = target: T2, Polyunsaturated fatty acid 5-lipoxygenase (Homo sapiens) (UniProt P09917); test: Inhibition of human 5-lipoxygenase at 10 uM
T2 sequence (whole entry): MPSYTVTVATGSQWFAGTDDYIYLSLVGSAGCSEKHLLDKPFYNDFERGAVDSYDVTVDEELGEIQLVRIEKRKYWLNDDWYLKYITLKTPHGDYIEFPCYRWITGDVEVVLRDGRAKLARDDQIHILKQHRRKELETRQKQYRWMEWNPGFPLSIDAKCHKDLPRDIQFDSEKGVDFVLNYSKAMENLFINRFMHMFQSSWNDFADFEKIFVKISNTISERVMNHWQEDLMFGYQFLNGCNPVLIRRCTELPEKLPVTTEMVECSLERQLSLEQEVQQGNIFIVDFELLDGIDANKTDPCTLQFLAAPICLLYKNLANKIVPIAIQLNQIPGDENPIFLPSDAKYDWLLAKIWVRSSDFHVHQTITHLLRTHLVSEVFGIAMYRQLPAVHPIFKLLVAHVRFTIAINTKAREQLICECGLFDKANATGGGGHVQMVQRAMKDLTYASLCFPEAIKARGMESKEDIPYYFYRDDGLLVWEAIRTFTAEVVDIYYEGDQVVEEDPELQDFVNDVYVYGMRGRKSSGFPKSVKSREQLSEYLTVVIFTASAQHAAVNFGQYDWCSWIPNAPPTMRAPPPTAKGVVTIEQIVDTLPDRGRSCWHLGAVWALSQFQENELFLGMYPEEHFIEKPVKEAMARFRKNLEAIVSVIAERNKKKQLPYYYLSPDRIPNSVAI

[11] = tested on: Rattus norvegicus; test: Increase monasters formation in Hans Wistar rat hollow fiber model implanted with human COLO205 cells at 12 mg/kg, iv after 48 hrs; format: functional, organism-based; parameters: dose 12 mg/kg; conditions: COLO 205
[12] = tested on: Rattus norvegicus; test: Increase monasters formation in Hans Wistar rat hollow fiber model implanted with human COLO205 cells at 12 mg/kg, iv after 24 hrs; format: functional, organism-based; parameters: dose 12 mg/kg; conditions: COLO 205
[13] = organism: Cavia porcellus; test: Binding affinity to sodium channel site 2 in guinea pig atria at 10 uM by radioligand displacement assay
[14] = tested on: Rattus norvegicus; test: Increase in caspase 3 activation in Hans Wistar rat hollow fiber model implanted with human COLO205 cells at 6 mg/kg, iv after 48 hrs; format: functional, organism-based; parameters: dose 6 mg/kg; conditions: COLO 205
[15] = target: Tyrosine-protein kinase Lck (Homo sapiens) (UniProt P06239); test: Inhibition of LCK at 10 uM
[16] = target: Somatostatin receptor type 1 (Homo sapiens) (UniProt P30872); test: Binding affinity to human SST1 receptor at 10 uM by radioligand displacement assay
[17] = tested on: Rattus norvegicus; test: Increase monasters formation in Hans Wistar rat hollow fiber model implanted with human COLO205 cells at 6 mg/kg, iv after 24 hrs; format: functional, organism-based; parameters: dose 6 mg/kg; conditions: COLO 205
[18] = tested on: Rattus norvegicus; test: Increase of phospho-histone-H3 positive cells in Hans Wistar rat hollow fiber model implanted with human COLO205 cells at 6 mg/kg, iv after 24 hrs; format: functional, organism-based; parameters: dose 6 mg/kg; conditions: COLO 205
[19] = Clearance in nude mouse; format: ADME, organism-based; conditions: in vivo

Somatostatin receptor type 1 (Homo sapiens), sequence (P30872 whole entry): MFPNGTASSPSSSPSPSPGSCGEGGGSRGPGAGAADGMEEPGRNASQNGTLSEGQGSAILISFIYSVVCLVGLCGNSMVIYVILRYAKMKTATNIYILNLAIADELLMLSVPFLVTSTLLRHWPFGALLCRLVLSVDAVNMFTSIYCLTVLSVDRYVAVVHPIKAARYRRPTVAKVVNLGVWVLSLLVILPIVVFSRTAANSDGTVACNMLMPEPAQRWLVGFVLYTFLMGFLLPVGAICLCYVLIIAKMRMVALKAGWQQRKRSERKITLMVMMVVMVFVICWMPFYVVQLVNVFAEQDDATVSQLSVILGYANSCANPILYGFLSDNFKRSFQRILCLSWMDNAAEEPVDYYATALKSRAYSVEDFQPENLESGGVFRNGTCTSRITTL
Tyrosine-protein kinase Lck (Homo sapiens), sequence (P06239 2-509 limits assumed): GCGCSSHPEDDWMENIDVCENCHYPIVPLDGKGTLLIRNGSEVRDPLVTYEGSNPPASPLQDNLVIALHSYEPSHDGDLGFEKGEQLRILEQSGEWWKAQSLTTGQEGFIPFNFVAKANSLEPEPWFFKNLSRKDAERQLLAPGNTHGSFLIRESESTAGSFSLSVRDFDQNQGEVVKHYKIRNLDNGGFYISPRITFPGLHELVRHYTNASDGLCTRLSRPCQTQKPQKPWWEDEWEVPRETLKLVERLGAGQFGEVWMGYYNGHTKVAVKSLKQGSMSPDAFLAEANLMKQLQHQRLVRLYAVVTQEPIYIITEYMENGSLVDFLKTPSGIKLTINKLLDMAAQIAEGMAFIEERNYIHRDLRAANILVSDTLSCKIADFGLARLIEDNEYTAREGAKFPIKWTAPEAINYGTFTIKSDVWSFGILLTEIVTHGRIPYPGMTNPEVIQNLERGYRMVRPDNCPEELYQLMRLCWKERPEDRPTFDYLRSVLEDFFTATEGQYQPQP
Ribosomal protein S6 kinase alpha-1 (Homo sapiens), sequence (Q15418 whole entry): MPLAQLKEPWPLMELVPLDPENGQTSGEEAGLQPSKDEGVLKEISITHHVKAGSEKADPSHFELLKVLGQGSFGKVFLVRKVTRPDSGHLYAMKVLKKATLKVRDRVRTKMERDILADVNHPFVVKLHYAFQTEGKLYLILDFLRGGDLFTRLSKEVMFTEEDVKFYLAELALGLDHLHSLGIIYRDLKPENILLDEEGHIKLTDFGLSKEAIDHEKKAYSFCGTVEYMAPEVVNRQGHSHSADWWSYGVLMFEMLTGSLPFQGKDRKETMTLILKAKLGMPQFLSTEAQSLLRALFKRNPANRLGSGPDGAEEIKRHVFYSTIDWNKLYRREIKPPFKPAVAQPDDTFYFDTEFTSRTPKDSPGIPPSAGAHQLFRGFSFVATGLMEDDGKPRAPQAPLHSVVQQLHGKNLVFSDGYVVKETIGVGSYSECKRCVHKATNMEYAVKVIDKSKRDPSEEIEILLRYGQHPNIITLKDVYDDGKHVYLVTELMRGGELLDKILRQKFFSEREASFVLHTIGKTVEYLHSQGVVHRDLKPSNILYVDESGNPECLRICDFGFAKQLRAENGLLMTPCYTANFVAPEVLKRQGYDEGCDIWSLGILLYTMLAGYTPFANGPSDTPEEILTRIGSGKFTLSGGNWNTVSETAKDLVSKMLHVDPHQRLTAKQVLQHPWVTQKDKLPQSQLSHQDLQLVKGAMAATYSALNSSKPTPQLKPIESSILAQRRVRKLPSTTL

CCC(c1nc2sccc2c(=O)n1Cc1ccccc1)N(CCCN)C(=O)c1ccc(C)cc1 (stereo in doubt; 56)
IC50 [1]: 8 nM | IC50 ([2]; colo 205): 30 nM | solubility at 24 h [3]: 1240 µM (≈ 588 µg/mL)

CCC(c1nc2onc(C)c2c(=O)n1Cc1ccccc1)N(CCCN)C(=O)c1ccc(C)cc1 (centres undefined)
IC50 [1]: 16 nM | IC50 ([2]; Homo sapiens, COLO 205, 72 h): 23 nM | solubility at 24 h [3]: 69 µM (≈ 32.7 µg/mL)

CCC(c1nc2ccsc2c(=O)n1Cc1ccccc1)N(CCCN)C(=O)c1ccccc1Cl (centres undefined)
IC50 [1]: 610 nM | IC50 ([2]; Homo sapiens, COLO 205, 72 h): 860 nM

CCC(c1nc2snc(C)c2c(=O)n1Cc1ccccc1)N(CCCN)C(=O)c1ccc(C)cc1 (stereo in doubt; 62)
IC50 [1]: 3 nM | IC50 ([2]; colo 205): 4 nM | solubility at 24 h [3]: 1570 µM (≈ 770 µg/mL)

CCC(c1nc2ccsc2c(=O)n1CC1CC1)N(CCCN)C(=O)c1ccc(C)cc1 (centres undefined)
IC50 [1]: 760 nM | IC50 ([2]; Homo sapiens, COLO 205, 72 h): 3080 nM

CCC(c1nc2ccsc2c(=O)n1Cc1ccccc1)N(CCCN)C(=O)c1ccc(C)c(F)c1 (centres undefined)
IC50 [1]: 20 nM | IC50 ([2]; Homo sapiens, COLO 205, 72 h): 60 nM

CCC(c1nc2ccsc2c(=O)n1Cc1cccc(F)c1)N(CCCN)C(=O)c1ccc(C)cc1 (centres undefined)
IC50 [1]: 20 nM | IC50 ([2]; Homo sapiens, COLO 205, 72 h): 330 nM

CCC(c1nc2ccsc2c(=O)n1Cc1ccccc1)N(CCCN)C(=O)c1ccc(C(F)(F)F)cc1 (centres undefined)
IC50 [1]: 210 nM | IC50 ([2]; Homo sapiens, COLO 205, 72 h): 510 nM

CCC(c1nc2ccsc2c(=O)n1Cc1ccccc1)N(CCCN)C(=O)c1ccccc1 (centres undefined)
IC50 [1]: 200 nM | IC50 ([2]; Homo sapiens, COLO 205, 72 h): 680 nM

CCC(c1nc2ccsc2c(=O)n1Cc1ccccc1)N(CCCN)C(=O)c1ccc(OC)cc1 (centres undefined)
IC50 [1]: 210 nM | IC50 ([2]; Homo sapiens, COLO 205, 72 h): 640 nM

CCC(c1nc2sc(Cl)c(Br)c2c(=O)n1Cc1ccccc1)N(CCCN)C(=O)c1ccc(C)cc1 (centres undefined)
IC50 [1]: 161 nM | IC50 ([2]; Homo sapiens, COLO 205, 72 h): 675 nM

CCC(c1nc2ccsc2c(=O)n1Cc1ccccc1)N(CCCN)C(=O)c1ccc(Br)cc1 (centres undefined)
IC50 [1]: 30 nM | IC50 ([2]; Homo sapiens, COLO 205, 72 h): 160 nM

CCC(c1nc2ccsc2c(=O)n1Cc1ccccc1)N(CCCN)C(=O)c1ccc(C(C)C)cc1 (centres undefined)
IC50 [1]: 940 nM | IC50 ([2]; Homo sapiens, COLO 205, 72 h): 3300 nM

CCC(c1nc2ccsc2c(=O)n1Cc1cc(C)on1)N(CCCN)C(=O)c1ccc(C)cc1 (centres undefined)
IC50 [1]: 630 nM | IC50 ([2]; Homo sapiens, COLO 205, 72 h): 1710 nM

CCC(c1nc2ccsc2c(=O)n1Cc1ccc(Cl)cc1)N(CCCN)C(=O)c1ccc(C)cc1 (centres undefined)
IC50 [1]: 210 nM | IC50 ([2]; Homo sapiens, COLO 205, 72 h): 1560 nM

CCC(c1nc2ccsc2c(=O)n1Cc1ccccc1)N(CCCCN)C(=O)c1ccc(C)cc1 (centres undefined)
IC50 [1]: 390 nM | IC50 ([2]; Homo sapiens, COLO 205, 72 h): 980 nM

CCC(c1nc2ncccc2c(=O)n1Cc1ccccc1)N(CCCN)C(=O)c1ccc(C)cc1 (centres undefined)
IC50 [1]: 323 nM | IC50 ([2]; Homo sapiens, COLO 205, 72 h): 1400 nM

CCC(c1nc2ccsc2c(=O)n1Cc1ccccc1)N(CCCN)C(=O)c1ccc(C)nc1 (centres undefined)
IC50 [1]: 980 nM | IC50 ([2]; Homo sapiens, COLO 205, 72 h): 3690 nM

CCC(c1nc2ccsc2c(=O)n1Cc1ccccc1)N(CCCN)C(=O)c1cccc(C)c1 (centres undefined)
IC50 [1]: 90 nM | IC50 ([2]; Homo sapiens, COLO 205, 72 h): 140 nM

CCC(c1nc2ccsc2c(=O)n1Cc1ccccc1)N(CC1CNCCO1)C(=O)c1ccc(C)cc1 (centres undefined)
IC50 [1]: 310 nM | IC50 ([2]; Homo sapiens, COLO 205, 72 h): 720 nM

CCC(c1nc2ccsc2c(=O)n1Cc1ccccc1)N(CCCN)C(=O)c1ccco1 (centres undefined)
IC50 [1]: 500 nM | IC50 ([2]; Homo sapiens, COLO 205, 72 h): 1550 nM

Cc1ccc(C(=O)N(CCCN)C(c2nc3snc(C)c3c(=O)n2Cc2ccccc2)C(C)C)cc1 (single isomer, unassigned; (+))
Activity [4]: Active | inhibition [5]: 76% | inhibition [6]: 87% | inhibition [7]: 35% | Activity [8]: Active | Activity [9]: Active | inhibition [10]: 71% | Activity [11]: Active | Activity [12]: Active | inhibition [13]: 99% | Activity [14]: Active | inhibition [15]: 42% | inhibition [16]: 80% | Activity [17]: Active | Activity [18]: Active

CCC(c1nc2ccsc2c(=O)n1Cc1ccc(C)cc1)N(CCCN)C(=O)c1ccc(C)cc1 (centres undefined)
IC50 [1]: 130 nM | IC50 ([2]; Homo sapiens, COLO 205, 72 h): 650 nM

CCC(c1nc2snc(C)c2c(=O)n1Cc1ccccc1)N(CCCN)C(=O)c1ccc(C)cc1 (stereo in doubt; 68)
IC50 [1]: 1 nM | IC50 ([2]; Homo sapiens, COLO 205, 72 h): 3 nM | clearance [19]: 50 mL/min/kg

CCC(c1nc2ccsc2c(=O)n1Cc1ccccc1)N(CCCN)C(=O)c1cccc(C(F)(F)F)c1 (centres undefined)
IC50 [1]: 310 nM | IC50 ([2]; Homo sapiens, COLO 205, 72 h): 580 nM

CCC(c1nc2ccsc2c(=O)n1Cc1ccccc1)N(C(=O)c1ccc(C)cc1)C1CCNCC1 (centres undefined)
IC50 [1]: 1070 nM | IC50 ([2]; Homo sapiens, COLO 205, 72 h): 1290 nM
